In ChEMBL document CHEMBL6153102, “Rational Design, Synthesis, and Biological Evaluation of Novel c-Met Degraders for Lung Cancer Therapy” (J Med Chem, 2025):
The source made the active and inactive calls. The rule behind the calls is not given here.

Legend:
[1] = Toxicity in BALB/c nude mouse assessed as liver damage at 10 to 20 mg/kg, ip administered for 7 days by H and E staining based analysis; type: organism-based; settings: in vivo, 168 h, dose 10-20 mg/kg, time 7 day
[2] = MRT (0 to t) in Sprague-Dawley rat at 2 mg/kg, iv measured upto 24 hrs by LC-MS/MS analysis; type: ADME, organism-based; settings: in vivo
[3] = target: T1, Protein cereblon/Hepatocyte growth factor receptor (Homo sapiens, UniProt P08581+Q96SW2); experiment: PROTAC activity at c-Met/CRBN in human EBC-1 cells assessed as reduction in TPX2 level at 15.6 nM incubated for 24 hrs by proteomics analysis; type: cell-based
Target sequence in this assay (P08581 25-1390 limits assumed): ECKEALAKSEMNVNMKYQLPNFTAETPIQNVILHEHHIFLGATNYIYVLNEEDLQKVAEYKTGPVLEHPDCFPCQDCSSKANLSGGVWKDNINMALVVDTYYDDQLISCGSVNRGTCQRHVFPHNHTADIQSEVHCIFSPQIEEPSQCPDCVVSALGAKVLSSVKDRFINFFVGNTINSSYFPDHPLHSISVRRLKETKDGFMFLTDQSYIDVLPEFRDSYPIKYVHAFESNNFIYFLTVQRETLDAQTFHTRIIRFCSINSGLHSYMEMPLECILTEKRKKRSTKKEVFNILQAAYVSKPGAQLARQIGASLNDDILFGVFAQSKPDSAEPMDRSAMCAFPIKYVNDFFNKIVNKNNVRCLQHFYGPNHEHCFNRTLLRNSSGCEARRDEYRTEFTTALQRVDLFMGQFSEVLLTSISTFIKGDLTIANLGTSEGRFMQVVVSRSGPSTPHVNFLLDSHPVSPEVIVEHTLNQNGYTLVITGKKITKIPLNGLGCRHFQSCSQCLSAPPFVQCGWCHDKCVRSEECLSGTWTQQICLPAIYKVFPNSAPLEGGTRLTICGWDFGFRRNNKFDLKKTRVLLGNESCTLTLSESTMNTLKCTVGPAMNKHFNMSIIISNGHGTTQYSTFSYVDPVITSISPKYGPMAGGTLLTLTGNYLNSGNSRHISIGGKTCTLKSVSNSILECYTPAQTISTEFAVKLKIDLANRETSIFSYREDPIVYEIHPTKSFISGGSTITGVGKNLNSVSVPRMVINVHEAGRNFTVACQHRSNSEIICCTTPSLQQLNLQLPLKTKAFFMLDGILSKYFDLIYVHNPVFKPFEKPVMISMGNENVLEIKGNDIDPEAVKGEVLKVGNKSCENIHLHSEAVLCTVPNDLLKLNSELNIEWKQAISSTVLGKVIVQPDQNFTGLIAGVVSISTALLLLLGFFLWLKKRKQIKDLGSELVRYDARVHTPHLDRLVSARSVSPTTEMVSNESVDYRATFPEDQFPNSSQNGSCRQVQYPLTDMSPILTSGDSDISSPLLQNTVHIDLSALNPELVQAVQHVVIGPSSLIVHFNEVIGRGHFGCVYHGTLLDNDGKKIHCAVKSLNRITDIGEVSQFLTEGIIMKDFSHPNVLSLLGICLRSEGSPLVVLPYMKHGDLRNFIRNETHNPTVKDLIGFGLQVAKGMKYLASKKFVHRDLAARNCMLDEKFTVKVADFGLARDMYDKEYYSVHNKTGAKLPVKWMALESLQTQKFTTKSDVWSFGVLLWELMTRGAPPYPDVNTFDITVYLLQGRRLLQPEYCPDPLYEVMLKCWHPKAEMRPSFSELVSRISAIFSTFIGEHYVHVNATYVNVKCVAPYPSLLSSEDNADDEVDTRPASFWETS
Target sequence in this assay (Q96SW2 whole entry partner): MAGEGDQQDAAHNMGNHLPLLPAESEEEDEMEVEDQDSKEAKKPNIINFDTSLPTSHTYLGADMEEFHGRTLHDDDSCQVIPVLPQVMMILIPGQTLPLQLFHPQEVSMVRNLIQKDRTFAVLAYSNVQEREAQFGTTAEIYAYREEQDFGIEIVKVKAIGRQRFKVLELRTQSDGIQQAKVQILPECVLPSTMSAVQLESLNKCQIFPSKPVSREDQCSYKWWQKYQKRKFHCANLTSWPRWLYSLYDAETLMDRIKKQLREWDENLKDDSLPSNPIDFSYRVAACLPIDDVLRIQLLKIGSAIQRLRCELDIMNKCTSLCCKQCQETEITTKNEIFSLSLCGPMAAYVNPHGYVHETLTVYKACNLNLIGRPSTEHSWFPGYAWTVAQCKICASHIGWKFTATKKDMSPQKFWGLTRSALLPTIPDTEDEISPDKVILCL

[4] = system: A549; experiment: Antiproliferative activity against human A549 cells assessed as cell viability incubated for 72 hrs by MTT assay; type: functional, cell-based; settings: A549, 72 h
[5] = target: T1, Protein cereblon/Hepatocyte growth factor receptor; experiment: PROTAC activity at c-Met/CRBN in human EBC-1 cells assessed as reduction in c-Met mRNA level at 3.9 to 125 nM incubated for 24 hrs by qPCR analysis; type: cell-based; settings: dose 3.9-125 nM
Target sequence in this assay (P08581 25-1390 limits assumed): as the sequence (P08581 25-1390 limits assumed) above
Target sequence in this assay (Q96SW2 whole entry partner): as the sequence (Q96SW2 whole entry partner) above

[6] = Toxicity in BALB/c nude mouse assessed as heart damage at 10 to 20 mg/kg, ip administered for 7 days by H and E staining based analysis; type: organism-based; settings: in vivo, 168 h, dose 10-20 mg/kg, time 7 day
[7] = Bioavailability in Sprague-Dawley rat at 5 mg/kg, ip measured upto 24 hrs by LC-MS/MS analysis; type: ADME, organism-based; settings: in vivo
[8] = Volume of distribution at steady state in Sprague-Dawley rat at 2 mg/kg, iv measured upto 24 hrs by LC-MS/MS analysis; type: ADME, organism-based; settings: in vivo
[9] = MRT (0 to t) in Sprague-Dawley rat at 5 mg/kg, ip measured upto 24 hrs by LC-MS/MS analysis; type: ADME, organism-based; settings: in vivo
[10] = Metabolic stability in rat liver microsome assessed as half life; type: ADME; settings: liver microsomes
[11] = AUC (0 to infinity) in Sprague-Dawley rat at 2 mg/kg, iv measured upto 24 hrs by LC-MS/MS analysis; type: ADME, organism-based; settings: in vivo
[12] = system: EBC-1; experiment: Induction of apoptosis in human EBC-1 cells assessed as viable cells at 50 nM incubated for 24 hrs by Annexin V/FITC staining based flow cytometry analysis (reference value: 95.9%); type: functional; settings: read-out: Activity
[13] = Tmax in Sprague-Dawley rat at 5 mg/kg, ip measured upto 24 hrs by LC-MS/MS analysis; type: ADME, organism-based; settings: in vivo
[14] = target: T1, Protein cereblon/Hepatocyte growth factor receptor; experiment: PROTAC activity at c-Met/CRBN in human EBC-1 cells assessed as reduction in c-Met level at 3.9 to 125 nM incubated for 24 hrs in presence of lenalidomide by Western blot analysis; type: cell-based; settings: dose 3.9-125 nM
Target sequence in this assay (P08581 25-1390 limits assumed): as the sequence (P08581 25-1390 limits assumed) above
Target sequence in this assay (Q96SW2 whole entry partner): as the sequence (Q96SW2 whole entry partner) above

[15] = target: T1, Protein cereblon/Hepatocyte growth factor receptor; experiment: PROTAC activity at c-Met/CRBN in human EBC-1 cells assessed as reduction in FOSL1 level at 15.6 nM incubated for 24 hrs by proteomics analysis; type: cell-based
Target sequence in this assay (P08581 25-1390 limits assumed): as the sequence (P08581 25-1390 limits assumed) above
Target sequence in this assay (Q96SW2 whole entry partner): as the sequence (Q96SW2 whole entry partner) above

[16] = system: EBC-1; experiment: Inhibition of colony formation in human EBC-1 cells at 3.9 to 15.6 nM incubated for 7 days by crystal violet staining based analysis; type: functional, cell-based; settings: dose 3.9-15.6 nM, time 7.0 day
[17] = target: T1, Protein cereblon/Hepatocyte growth factor receptor; experiment: PROTAC activity at c-Met/CRBN in human EBC-1 cells assessed as reduction in TXNDC9 level at 15.6 nM incubated for 24 hrs by proteomics analysis; type: cell-based
Target sequence in this assay (P08581 25-1390 limits assumed): as the sequence (P08581 25-1390 limits assumed) above
Target sequence in this assay (Q96SW2 whole entry partner): as the sequence (Q96SW2 whole entry partner) above

[18] = system: EBC-1; experiment: Induction of apoptosis in human EBC-1 cells assessed as upregulation of PARP level incubated for 24 hrs by Western blot analysis; type: functional, cell-based; settings: dose 5-50 nM
[19] = system: EBC-1; experiment: Antitumor activity against human EBC-1 cells xenografted BALB/c nude mouse assessed as reduction in tumor volume at 10 mg/kg, ip administered for 7 days; type: functional; set-up: scale not given: the % may be the effect or the level left; settings: time 7 day
[20] = system: HCT-116; experiment: Antiproliferative activity against human HCT-116 cells assessed as cell viability incubated for 72 hrs by MTT assay; type: functional, cell-based; settings: HCT-116, 72 h
[21] = target: T1, Protein cereblon/Hepatocyte growth factor receptor; experiment: PROTAC activity at c-Met/CRBN in human A549 cells assessed as reduction in c-Met level incubated for 24 hrs by Western blotting analysis; type: cell-based
Target sequence in this assay (P08581 whole entry): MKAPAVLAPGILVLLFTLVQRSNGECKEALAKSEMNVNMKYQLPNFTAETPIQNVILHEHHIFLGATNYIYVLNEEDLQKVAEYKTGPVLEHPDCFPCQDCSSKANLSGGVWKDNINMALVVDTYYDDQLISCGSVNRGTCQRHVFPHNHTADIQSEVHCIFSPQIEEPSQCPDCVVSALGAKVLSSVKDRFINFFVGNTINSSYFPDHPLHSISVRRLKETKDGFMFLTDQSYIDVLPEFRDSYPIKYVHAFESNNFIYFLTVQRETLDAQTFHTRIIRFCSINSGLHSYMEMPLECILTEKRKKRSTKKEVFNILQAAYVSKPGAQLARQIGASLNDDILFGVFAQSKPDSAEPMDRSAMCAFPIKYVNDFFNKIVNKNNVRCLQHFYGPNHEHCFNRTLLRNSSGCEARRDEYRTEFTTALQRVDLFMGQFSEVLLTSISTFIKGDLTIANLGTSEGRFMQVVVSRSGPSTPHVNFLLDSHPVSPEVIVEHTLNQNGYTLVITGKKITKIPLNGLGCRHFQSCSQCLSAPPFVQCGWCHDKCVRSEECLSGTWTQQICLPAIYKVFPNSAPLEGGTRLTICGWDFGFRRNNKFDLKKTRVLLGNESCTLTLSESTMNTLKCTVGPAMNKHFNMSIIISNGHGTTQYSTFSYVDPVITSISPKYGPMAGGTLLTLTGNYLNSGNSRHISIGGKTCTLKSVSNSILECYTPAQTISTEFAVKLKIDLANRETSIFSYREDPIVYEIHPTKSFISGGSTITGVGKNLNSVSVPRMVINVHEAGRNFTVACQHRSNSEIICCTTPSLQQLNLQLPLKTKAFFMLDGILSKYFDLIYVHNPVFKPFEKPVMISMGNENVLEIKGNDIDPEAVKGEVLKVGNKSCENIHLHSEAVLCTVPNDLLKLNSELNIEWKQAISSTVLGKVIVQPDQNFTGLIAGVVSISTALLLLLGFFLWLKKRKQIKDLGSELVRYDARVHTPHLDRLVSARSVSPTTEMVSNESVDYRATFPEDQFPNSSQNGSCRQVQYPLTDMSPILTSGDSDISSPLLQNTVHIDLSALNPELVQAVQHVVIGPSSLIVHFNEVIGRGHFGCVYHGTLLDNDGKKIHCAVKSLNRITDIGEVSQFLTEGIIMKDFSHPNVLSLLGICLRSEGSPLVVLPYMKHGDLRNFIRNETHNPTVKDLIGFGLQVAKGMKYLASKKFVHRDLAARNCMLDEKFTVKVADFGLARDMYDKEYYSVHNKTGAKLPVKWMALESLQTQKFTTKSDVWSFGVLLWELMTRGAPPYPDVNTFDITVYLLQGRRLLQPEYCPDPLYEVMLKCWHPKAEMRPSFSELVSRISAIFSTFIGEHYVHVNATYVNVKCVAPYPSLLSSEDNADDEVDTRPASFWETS
Target sequence in this assay (Q96SW2 whole entry): as the sequence (Q96SW2 whole entry partner) above

[22] = AUC (0 to infinity) in Sprague-Dawley rat at 5 mg/kg, ip measured upto 24 hrs by LC-MS/MS analysis; type: ADME, organism-based; settings: in vivo
[23] = target: T1, Protein cereblon/Hepatocyte growth factor receptor; experiment: PROTAC activity at c-Met/CRBN in human EBC-1 cells assessed as reduction in AKR1C3 level at 15.6 nM incubated for 24 hrs by proteomics analysis; type: cell-based
Target sequence in this assay (P08581 25-1390 limits assumed): as the sequence (P08581 25-1390 limits assumed) above
Target sequence in this assay (Q96SW2 whole entry partner): as the sequence (Q96SW2 whole entry partner) above

[24] = Apparent volume of distribution in Sprague-Dawley rat at 2 mg/kg, iv measured upto 24 hrs by LC-MS/MS analysis; type: ADME, organism-based; settings: in vivo
[25] = Stability in human whole blood assessed as half life; type: ADME, tissue-based
[26] = target: T1, Protein cereblon/Hepatocyte growth factor receptor; experiment: PROTAC activity at c-Met/CRBN in human EBC-1 cells assessed as induction of c-Met degradation incubated for 24 hrs by Western blotting analysis; type: cell-based
[27] = target: T1, Protein cereblon/Hepatocyte growth factor receptor; experiment: PROTAC activity at c-Met/CRBN in human EBC-1 cells assessed as induction of c-Met degradation at 15.6 nM incubated for 24 hrs by Western blotting analysis relative to control; type: cell-based
[28] = system: Hs746T; experiment: Antiproliferative activity against human Hs746T cells assessed as cell viability incubated for 72 hrs by MTT assay; type: functional, cell-based
[29] = Toxicity in BALB/c nude mouse assessed as spleen damage at 10 to 20 mg/kg, ip administered for 7 days by H and E staining based analysis; type: organism-based; settings: in vivo, 168 h, dose 10-20 mg/kg, time 7 day
[30] = system: EBC-1; experiment: Induction of apoptosis in human EBC-1 cells assessed as late apoptotic cells at 15 nM incubated for 24 hrs by Annexin V/FITC staining based flow cytometry analysis (reference value: 1.65 %); type: functional
[31] = system: EBC-1; experiment: Induction of apoptosis in human EBC-1 cells assessed as upregulation of cleaved caspase-3 level incubated for 24 hrs by Western blot analysis; type: functional, cell-based; settings: dose 5-50 nM
[32] = MRT (0 to infinity) in Sprague-Dawley rat at 2 mg/kg, iv measured upto 24 hrs by LC-MS/MS analysis; type: ADME, organism-based; settings: in vivo
[33] = MRT (0 to infinity) in Sprague-Dawley rat at 5 mg/kg, ip measured upto 24 hrs by LC-MS/MS analysis; type: ADME, organism-based; settings: in vivo
[34] = Stability in human plasma assessed as half life; type: ADME, cell-free
[35] = system: EBC-1; experiment: Induction of apoptosis in human EBC-1 cells assessed as late apoptotic cells at 50 nM incubated for 24 hrs by Annexin V/FITC staining based flow cytometry analysis (reference value: 1.65 %); type: functional
[36] = Tmax in Sprague-Dawley rat at 2 mg/kg, iv measured upto 24 hrs by LC-MS/MS analysis; type: ADME, organism-based; settings: in vivo
[37] = Metabolic stability in human liver microsome assessed as clearance; type: ADME; settings: liver microsomes, read-out: CLH
[38] = target: T1, Protein cereblon/Hepatocyte growth factor receptor; experiment: PROTAC activity at c-Met/CRBN in human HCT-116 cells assessed as reduction in c-Met level at 3.9 to 125 nM incubated for 24 hrs in presence of tepotinib by Western blot analysis; type: cell-based; settings: dose 3.9-125 nM
[39] = system: EBC-1; experiment: Induction of apoptosis in human EBC-1 cells assessed as late apoptotic cells at 5 nM incubated for 24 hrs by Annexin V/FITC staining based flow cytometry analysis (reference value: 1.65 %); type: functional

**Q.** What does the source list for `COc1ccc(C(=O)N2CCC3(CCN(C(=O)CN4CCC(COc5cnc(-c6cccc(Cn7nc(-c8cccc(C#N)c8)ccc7=O)c6)nc5)CC4)CC3)CC2)cc1N1CCC(=O)NC1=O`?
**A.** Activity [1]: Non-toxic; MRT last at 24 h [2]: 2.49 h; Activity [3]: Active; IC50 [4]: 16 µM; Activity [5]: Active; Activity [6]: Non-toxic; bioavailability [7]: 49.2%; Vdss [8]: 36.26 L/kg; MRT last at 24 h [9]: 5.06 h; half-life [10]: 2.22 h; AUC(0-inf) [11]: 551 ng·h/mL; viability at 0.05 µM [12]: 62%; Tmax [13]: 2 h; Activity [14]: Active; Activity [15]: Active; inhibition [16]: Active; Activity [17]: Active; Activity [18]: Dose-dependent-effect; Activity [19]: 86.14%; IC50 [20]: 6.19 µM; DC50 [21]: 0.0418 µM; AUC(0-inf) [22]: 678 ng·h/mL; Activity [23]: Active; Vz [24]: 13.13 L/kg; half-life [25]: > 2 h; DC50 [26]: 0.00059 µM; Activity ([26]; dose 0.03 nM): Dose-dependent-effect; Emax [27]: 96.1%; IC50 [28]: 0.008 µM; Activity [29]: Non-toxic; Activity [30]: 3.66%; Activity [31]: Dose-dependent-effect; MRT [32]: 3.58 h; MRT inf [33]: 6 h; half-life [34]: > 2 h; Activity [35]: 3.47%; Tmax [36]: 5.04 min; CLint scaled [37]: 57.6 mL/min/kg; Activity [38]: inactive; Activity [39]: 3.43%
